In US9115134B2, “6-triazolopyridazine sulfanyl benzothiazole derivatives as MET inhibitors” (SANOFI, priority 2007, dated 2015):

What was measured:
MET [1] = target: T1, MET (Homo sapiens, UniProt P08581); assay: Test B: Inhibition of the autophosphorylation of MET; ELISA technique (pppY1230,1234,1235) in MKN45 cells; assay type: cell-based; design: Seed MKN45 cells into 96-well plates (Cell coat BD polylysine) at 20 000 cells/well; endogenous in cells; host or cells: MKN45 cells; conditions: 1 h treatment, PhosphoMET ELISA
Summary of the method: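 Adhered cells treated 1 h with six compound concentrations in duplicate, final 10 000 to 30 nM, against DMSO controls. Cells then lysed at 4° C for 30 min in Triton/SDS/deoxycholate buffer with phosphatase inhibitors. Phospho-MET measured by sandwich ELISA with anti-phospho MET antibody and HRP detection, absorbance at 450 nm.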
Target sequence in this assay (P08581 25-1390): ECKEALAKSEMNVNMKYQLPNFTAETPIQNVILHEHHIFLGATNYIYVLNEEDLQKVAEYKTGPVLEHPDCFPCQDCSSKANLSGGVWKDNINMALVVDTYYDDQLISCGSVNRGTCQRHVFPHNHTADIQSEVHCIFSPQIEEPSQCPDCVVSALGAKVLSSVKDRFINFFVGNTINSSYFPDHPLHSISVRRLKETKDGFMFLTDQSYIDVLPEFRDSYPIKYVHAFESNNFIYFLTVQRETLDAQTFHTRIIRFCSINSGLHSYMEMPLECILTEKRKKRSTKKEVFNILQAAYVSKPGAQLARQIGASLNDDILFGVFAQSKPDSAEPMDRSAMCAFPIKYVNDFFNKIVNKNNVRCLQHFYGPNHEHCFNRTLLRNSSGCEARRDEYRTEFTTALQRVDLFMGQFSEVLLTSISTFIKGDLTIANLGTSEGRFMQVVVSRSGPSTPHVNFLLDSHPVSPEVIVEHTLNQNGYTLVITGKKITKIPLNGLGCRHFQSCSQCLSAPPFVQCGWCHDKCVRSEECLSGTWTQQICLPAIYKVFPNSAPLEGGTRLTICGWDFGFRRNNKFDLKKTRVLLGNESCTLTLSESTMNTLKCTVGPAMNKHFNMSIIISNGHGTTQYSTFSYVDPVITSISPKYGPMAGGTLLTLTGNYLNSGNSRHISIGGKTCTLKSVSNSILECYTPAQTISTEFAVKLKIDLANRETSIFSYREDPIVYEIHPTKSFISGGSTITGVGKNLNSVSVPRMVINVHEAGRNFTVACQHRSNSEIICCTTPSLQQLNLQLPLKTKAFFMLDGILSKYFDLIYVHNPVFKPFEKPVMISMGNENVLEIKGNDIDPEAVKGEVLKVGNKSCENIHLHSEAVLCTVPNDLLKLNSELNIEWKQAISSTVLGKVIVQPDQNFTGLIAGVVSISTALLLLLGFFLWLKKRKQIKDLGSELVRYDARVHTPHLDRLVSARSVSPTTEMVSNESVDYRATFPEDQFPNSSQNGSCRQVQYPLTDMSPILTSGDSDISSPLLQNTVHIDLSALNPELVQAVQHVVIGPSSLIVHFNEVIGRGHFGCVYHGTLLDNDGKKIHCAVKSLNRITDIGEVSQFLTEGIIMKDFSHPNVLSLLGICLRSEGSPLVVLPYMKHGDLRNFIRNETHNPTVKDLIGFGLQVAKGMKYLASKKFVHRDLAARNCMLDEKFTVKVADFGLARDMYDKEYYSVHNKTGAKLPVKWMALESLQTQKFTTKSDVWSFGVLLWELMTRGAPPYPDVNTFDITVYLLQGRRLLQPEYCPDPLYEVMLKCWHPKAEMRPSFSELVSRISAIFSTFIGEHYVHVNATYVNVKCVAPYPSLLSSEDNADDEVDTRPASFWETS

[2] = system: HCT116 cells, MKN45 cells; assay: Test C: Measurement of cell proliferation by 14C-thymidine pulse; assay type: cell-based; conditions: 14C-thymidine incorporation, 96 h of treatment; cell line not given
Summary of the method: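 HCT116 (2500/well, DMEM) and MKN45 (7500/well, RPMI), both with 10% FCS, treated after 4 h with 10 concentrations from 10 000 to 0.3 nM (3-fold, duplicate). ¹⁴C-thymidine (0.1 μCi/well) added at 72 h; incorporation read after 24 h pulse, 96 h total treatment.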

MET [3] = target: T1, MET; assay: Test A: HTRF MET assay in 96-well format; assay type: biochemical; design: The His-Tev-MET (956-1390) recombinant DNA in pFastBac (Invitrogen) is transfected into insect cells; His tag (N, cleaved yes); TEV cleavage site (N); made in house; host or cells: SF21 insect cells (baculovirus, pFastBac); conditions: MET 5 nM, 10 μM ATP
Summary of the method: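 Purified human MET cytoplasmic domain (956-1390, His tag cleaved), 5 nM, with compound (0.17 nM–10 μM, 3% DMSO) in MOPS pH 7.4; 1 μg/ml poly-(GAT), 10 μM ATP, 5 mM MgCl2, 10 min at ambient temperature. HTRF read-out (streptavidin-XL/anti-pTyr Eu cryptate, 2 h); % inhibition from 665/620 ratios.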
Target sequence in this assay (P08581 956-1390): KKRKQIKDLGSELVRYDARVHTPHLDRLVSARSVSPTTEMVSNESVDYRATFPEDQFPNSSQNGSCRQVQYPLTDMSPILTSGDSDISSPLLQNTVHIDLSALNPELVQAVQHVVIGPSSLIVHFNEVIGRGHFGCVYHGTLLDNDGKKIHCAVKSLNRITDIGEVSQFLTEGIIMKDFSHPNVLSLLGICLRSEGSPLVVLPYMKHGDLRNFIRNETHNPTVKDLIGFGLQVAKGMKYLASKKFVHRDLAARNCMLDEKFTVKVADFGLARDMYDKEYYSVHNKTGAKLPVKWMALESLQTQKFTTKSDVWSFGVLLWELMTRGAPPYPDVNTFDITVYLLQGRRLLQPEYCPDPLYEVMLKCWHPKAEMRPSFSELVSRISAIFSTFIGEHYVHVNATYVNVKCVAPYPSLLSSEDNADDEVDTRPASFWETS

Structure (SMILES) | IC50 (MET [1]) | IC50 [2] | IC50 (MET [3])
Cn1cc(-c2ccc3nnc(Sc4ccc5nc(N)sc5c4)n3n2)cn1 [Example 43, 6-{[6-(1-Methyl-1H-pyrazol-4-yl)[1,2,4]triazolo[4,3-b]pyridazin-3-yl]sulphanyl}-1,3-benzothiazol-2-amine] | < 100 nM | < 1000 nM | < 100 nM
O=C(NCCN1CCOCC1)Nc1nc2ccc(Sc3nnc4n3N=C(c3ccc(F)cc3)CC4)cc2s1 [Example 44, 1-(6-{[6-(4-Fluorophenyl)-7,8-dihydro-[1,2,4]triazolo[4,3-b]pyridazin-3-yl]sulphanyl}-1,3-benzothiazol-2-yl)-3-[2-(morpholin-4-yl)ethyl]urea] | < 100 nM | < 1000 nM | < 100 nM
CCOC(=O)Nc1nc2ccc(Sc3nnc4ccc(OC)nn34)cc2s1 [Example 45, Ethyl {6-[(6-methoxy[1,2,4]triazolo[4,3-b]pyridazin-3-yl)sulphanyl]-1,3-benzothiazol-2-yl}carbamate] | 100 to 500 nM | < 1000 nM | < 100 nM
COCCCOC(=O)Nc1nc2ccc(Sc3nnc4ccc(OC)nn34)cc2s1 [Example 46, 3-Methoxypropyl {6-[(6-methoxy[1,2,4]triazolo[4,3-b]pyridazin-3-yl)sulphanyl]-1,3-benzothiazol-2-yl}carbamate] | 100 to 500 nM | < 1000 nM | < 100 nM
COCCCOC(=O)Nc1nc2ccc(Sc3nnc4ccc(NCCOC)nn34)cc2s1 [Example 47, 3-Methoxypropyl[6-({6-[(2-methoxyethyl)amino][1,2,4]triazolo[4,3-b]pyridazin-3-yl}sulphanyl)-1,3-benzothiazol-2-yl]carbamate] | 100 to 500 nM | < 1000 nM | < 100 nM
COCCNc1ccc2nnc(Sc3ccc4nc(NC(=O)NCCN5CCCC5)sc4c3)n2n1 [Example 48, 1-[6-({6-[(2-Methoxyethyl)amino][1,2,4]triazolo[4,3-b]pyridazin-3-yl}sulphanyl)-1,3-benzothiazol-2-yl]-3-[2-(pyrrolidin-1-yl)ethyl]urea] | 100 to 500 nM | < 1000 nM | < 100 nM
COc1ccc2nnc(Sc3ccc4nc(NC(=O)NCCN5CCCC5)sc4c3)n2n1 [Example 49, 1-{6-[(6-Methoxy[1,2,4]triazolo[4,3-b]pyridazin-3-yl)sulphanyl]-1,3-benzothiazol-2-yl}-3-[2-(pyrrolidin-1-yl)ethyl]urea] | < 100 nM | < 1000 nM | < 100 nM
CCOc1ccc2nnc(Sc3ccc4nc(N)sc4c3)n2n1 [Example 50, 6-[(6-Ethoxy[1,2,4]triazolo[4,3-b]pyridazin-3-yl)sulphanyl]-1,3-benzothiazol-2-amine] | 100 to 500 nM | < 1000 nM | < 100 nM
CC(C)(C)OC(=O)Nc1nc2ccc(Sc3nnc4ccc(OCC(O)CCCl)nn34)cc2s1 (stereo not drawn) [Example 51, 2-Methylpropan-2-yl(6-{[6-(4-chloro-2-hydroxybutoxy)[1,2,4]triazolo[4,3-b]pyridazin-3-yl]sulphanyl}-1,3-benzothiazol-2-yl)carbamate] | < 100 nM | < 1000 nM | < 100 nM
CC(CO)(CCl)COc1ccc2nnc(Sc3ccc4nc(NC(=O)OC(C)(C)C)sc4c3)n2n1 (stereo not drawn) [Example 52, 2-Methylpropan-2-yl[6-({6-[3-chloro-2-(hydroxymethyl)-2-methylpropoxy]-[1,2,4]triazolo[4,3-b]pyridazin-3-yl}sulphanyl)-1,3-benzothiazol-2-yl]carbamate] | < 100 nM | < 1000 nM | < 100 nM
Nc1nc2ccc(Sc3nnc4ccc(-c5cccc(F)c5)nn34)cc2s1 [Example 53, 6-{[6-(3-Fluorophenyl)[1,2,4]triazolo[4,3-b]pyridazin-3-yl]sulphanyl}-1,3-benzothiazol-2-amine] | < 100 nM | < 1000 nM | < 100 nM
Nc1nc2ccc(Sc3nnc4n3N=C(c3cccc(F)c3)CC4)cc2s1 [Example 54, 6-{[6-(3-Fluorophenyl)-7,8-dihydro[1,2,4]triazolo[4,3-b]pyridazin-3-yl]sulphanyl}-1,3-benzothiazol-2-amine] | 100 to 500 nM | < 1000 nM | < 100 nM
O=C(Nc1nc2ccc(Sc3nnc4ccc(-c5ccc(F)cc5)nn34)cc2s1)N1CCOCC1 [Example 55, N-(6-{[6-(4-Fluorophenyl)[1,2,4]triazolo[4,3-b]pyridazin-3-yl]sulphanyl}-1,3-benzothiazol-2-yl)morpholine-4-carboxamide] | 100 to 500 nM | < 1000 nM | < 100 nM
Nc1nc2ccc(Sc3nnc4ccc(-c5ccccc5F)nn34)cc2s1 [Example 56, 6-{[6-(2-Fluorophenyl)[1,2,4]triazolo[4,3-b]pyridazin-3-yl]sulphanyl}-1,3-benzothiazol-2-amine] | 100 to 500 nM | < 1000 nM | < 100 nM
CCC(C)CNc1nc2ccc(Sc3nnc4ccc(NCCOC)nn34)cc2s1 (stereo not drawn) [Example 57, N-(2-Methoxyethyl)-3-({2-[(2-methylbutyl)amino]-1,3-benzothiazol-6-yl}sulphanyl)[1,2,4]triazolo[4,3-b]pyridazin-6-amine] | 100 to 500 nM | < 1000 nM | < 100 nM
CCOc1ccc2nnc(Sc3ccc4nc(NC(=O)CCOC)sc4c3)n2n1 [Example 58, N-{6-[(6-Ethoxy[1,2,4]triazolo[4,3-b]pyridazin-3-yl)sulphanyl]-1,3-benzothiazol-2-yl}-3-methoxypropanamide] | < 100 nM | < 1000 nM | < 100 nM
CCOc1ccc2nnc(Sc3ccc4nc(NC(=O)NC5CC5)sc4c3)n2n1 [Example 59, 1-cyclopropyl-3-{6-[(6-ethoxy[1,2,4]triazolo[4,3-b]pyridazin-3-yl)sulphanyl]-1,3-benzothiazol-2-yl}urea] | < 100 nM | < 1000 nM | < 100 nM
O=C(Nc1nc2ccc(Sc3nnc4ccc(-c5ccc(F)cc5)nn34)cc2s1)C1CC1 [Example 60, N-(6-{[6-(4-Fluorophenyl)[1,2,4]triazolo[4,3-b]pyridazin-3-yl]sulphanyl}-1,3-benzothiazol-2-yl)cyclopropanecarboxamide] | < 100 nM | < 1000 nM | < 100 nM
O=C(Nc1nc2ccc(Sc3nnc4n3N=C(c3ccc(F)cc3)CC4)cc2s1)C1CC1 [Example 61, N-(6-{[6-(4-Fluorophenyl)-7,8-dihydro[1,2,4]triazolo[4,3-b]pyridazin-3-yl]sulphanyl}-1,3-benzothiazol-2-yl)cyclopropanecarboxamide] | < 100 nM | < 1000 nM | < 100 nM
Nc1nc2ccc(Sc3nnc4ccc(NC5CCCCC5)nn34)cc2s1 [Example 62, 3-[(2-Amino-1,3-benzothiazol-6-yl)sulphanyl]-N-cyclohexyl[1,2,4]triazolo[4,3-b]pyridazin-6-amine] | < 100 nM | < 1000 nM | < 100 nM
Nc1nc2ccc(Sc3nnc4ccc(OC5CCCCC5)nn34)cc2s1 [Example 63, 6-{[6-(Cyclohexyloxy)[1,2,4]triazolo[4,3-b]pyridazin-3-yl]sulphanyl}-1,3-benzothiazol-2-amine] | 100 to 500 nM | < 1000 nM | < 100 nM
O=C(NCCN1CCOCC1)Nc1nc2ccc(Sc3nnc4ccc(-c5cccc(F)c5)nn34)cc2s1 [Example 64, 1-(6-{[6-(3-Fluorophenyl)[1,2,4]triazolo[4,3-b]pyridazin-3-yl]sulphanyl}-1,3-benzothiazol-2-yl)-3-[2-(morpholin-4-yl)ethyl]urea] | < 100 nM | < 1000 nM | < 100 nM
CC(=O)Nc1nc2ccc(Sc3nnc4ccc(-c5cccc(F)c5)nn34)cc2s1 [Example 65, N-(6-{[6-(3-Fluorophenyl)[1,2,4]triazolo[4,3-b]pyridazin-3-yl]sulphanyl}-1,3-benzothiazol-2-yl)acetamide] | < 100 nM | < 1000 nM | < 100 nM
CC(C)C(=O)Nc1nc2ccc(Sc3nnc4ccc(-c5ccc(F)cc5)nn34)cc2s1 [Example 66, N-(6-{[6-(4-Fluorophenyl)[1,2,4]triazolo[4,3-b]pyridazin-3-yl]sulphanyl}-1,3-benzothiazol-2-yl)-2-methylpropanamide] | 100 to 500 nM | < 1000 nM | < 100 nM
O=C(Nc1nc2ccc(Sc3nnc4ccc(-c5cccc(F)c5)nn34)cc2s1)C1CC1 [Example 67, N-(6-{[6-(3-Fluorophenyl)[1,2,4]triazolo[4,3-b]pyridazin-3-yl]sulphanyl}-1,3-benzothiazol-2-yl)cyclopropanecarboxamide] | < 100 nM | < 1000 nM | < 100 nM
